Reference: patent publication US9821002B2, “Method for alleviating radiation injury with isorhamnetin-3-O-β-D-glucoside” (Sinotai Oncology Associate., Ltd., priority 2015, dated 2017)

System: NMuMG cells
Test: Apoptosis assay (FITC Annexin V/PI) after X-ray irradiation
Assay type: cell-based, mouse
Conditions: 2 h pretreatment, X-ray 15 Gy, 72 hours, mean ± SEM
Source text: Four groups of BNL CL.2 cells (i.e., a normal control group referred to as Normal Control Group 1-A, an X-ray control group referred to as X-Ray Control Group 1-A, and two experimental groups referred to as Experimental Groups 1-A to 2-A), and six groups of NMuMG cells (i.e., a normal control group referred to as Normal Control Group 1-B, an X-ray control group referred to as X-Ray Control Group 1-B, two isorhamnetin groups referred to as Isorhamnetin Groups 1 to 2, and two experimental groups referred to as Experimental Groups 1-B to 2-B), were prepared based on the procedure set forth in “Source and cultivation of cell lines” of “Experimental materials”. BNL CL.2 cells in each group were cultivated using 5 mL of a corresponding medium shown in Table 1 and a 6-cm Petri dish in an amount of 2×10^5 cells per dish. Likewise, NMuMG cells in each group were cultivated using 5 mL of a corresponding medium shown in Table 1 and a 6-cm Petri dish in an amount of 2.5×10^5 cells per dish. The cultivation was conducted in an incubator (37° C., 5% CO2) for 24 hours.
Subsequently, medium was replaced with fresh medium. The obtained cultures in Experimental Groups 1-A, 1-B, 2-A, and 2-B were pretreated with the stock solution of isorhamnetin-3-O-β-D-glucoside, and the obtained cultures in Isorhamnetin Groups 1 to 2 were pretreated with the stock solution of isorhamnetin.
The culture in each group was then cultivated in an incubator (37° C., 5% CO2) for two hours. The resultant culture was used for the following experiments in sections B to D.
The cultures in X-Ray Control Group 1-A, X-Ray Control Group 1-B, Isorhamnetin Group 1, Isorhamnetin Group 2, Experimental Group 1-A, Experimental Group 1-B, Experimental Group 2-A, and Experimental Group 2-B, prepared according to section A of “Experimental procedures” in this example, were subjected to X-ray irradiation using a linear accelerator at a dose of 15 Gy. The cultures in Normal Control Groups 1-A and 1-B received no X-ray irradiation treatment. The culture of BNL CL.2 cells in each group was cultivated using a 6-cm Petri dish in an incubator (37° C., 5% CO2) for 96 hours, and the culture of NMuMG cells in each group was cultivated using a 6-cm Petri dish in an incubator (37° C., 5% CO2) for 72 hours. 1 mL of trypsin-EDTA was added to the culture in each group so as to detach the cells from the bottom of the Petri dish. Following this, 1 mL of a fresh medium (corresponding to the medium described in Table 1) was added to neutralize the activity of the trypsin, and the resultant cell suspension was transferred to a centrifuge tube with a pipette, followed by centrifugation at 1200 rpm for three minutes. The supernatant was removed, and the cell pellet thus obtained was washed once with cold PBS (pH 7.4), followed by centrifugation at 1200 rpm for 3 minutes. The supernatant was removed, and 100 μL of cold Annexin V binding buffer (BD Pharmingen™) was added to sufficiently re-suspend the cell pellet thereby obtaining a cell suspension having a cell concentration of 1.0×10^6 cells/mL. Afterward, 5 μL of FITC Annexin V (BD Pharmingen™) and 5 μL of propidium iodide (PI) staining solution (BD Pharmingen™) were added to the obtained cell suspension, followed by mixing evenly and standing in the dark at 4° C. for 30 minutes so as to obtain stained cells.
Subsequently, the stained cells were analyzed using BD Accuri™ C6 flow cytometry, in which cells that could be stained with FITC Annexin V but not with PI (i.e., FITC Annexin V positive and PI negative) represented cells that were induced with early apoptosis; cells stained with both FITC Annexin V and PI (i.e., FITC Annexin V positive and PI positive) represented cells that were induced with late apoptosis; and cells that could not be stained with FITC Annexin V and PI (i.e., FITC Annexin V negative and PI negative) represented viable cells. The number of stained cells was calculated using BD Accuri™ C6 software. […]

COc1cc(-c2oc3cc(O)cc(O)c3c(=O)c2O)ccc1O [Isorhamnetin]
Apoptosis percentage (15 μM): 22.87 ± 1.33%
Apoptosis percentage (30 μM): 22.13 ± 0.29%
